The text below walks through data of US11306098B2, “Substituted pyrrolo[1,2-a]pyrazines and pyrrolo[1,2-a][1,4]diazepines as TREX1 inhibitors” (VENENUM BIODESIGN, LLC, priority 2019, dated 2022).

pIC50: −log10 of the molar value. Structures can show the parent of a compound that is named as a salt.

One test deals with murine TREX1 (Mus musculus (Mouse), UniProt Q91XB0). The experiment in a line: TREX1 Exonuclease Assay (murine enzyme). It counts as biochemical. The note with it: murine TREX1 1 nM, FAM/BHQ1-labeled DNA oligonucleotide. As for the experimental part: (§1) The TREX1 Exonuclease assay is an exemplary in vitro assay for measuring the activity of the TREX1 inhibitors of the present invention. In this assay, TREX1 exonuclease activity was evaluated by measuring the increase in fluorescence resulting from TREX1-catalyzed removal of a quencher from the 3′ end of a FAM-labeled DNA oligonucleotide (5′FAM-CCA CGA GAG CGT-BHQ1-3′). The assay was conducted using Wild Type (WT) human or murine TREX1 enzyme constructs corresponding to amino acids 55-297 of UniProt ID Q9NSU2-1 (SEQ ID NO: 1), or amino acids 1-242 of UniProt ID Q91XB0-1 (SEQ ID NO: 2), respectively. See, e.g., Example A.
murine TREX1, sequence (Q91XB0 1-242): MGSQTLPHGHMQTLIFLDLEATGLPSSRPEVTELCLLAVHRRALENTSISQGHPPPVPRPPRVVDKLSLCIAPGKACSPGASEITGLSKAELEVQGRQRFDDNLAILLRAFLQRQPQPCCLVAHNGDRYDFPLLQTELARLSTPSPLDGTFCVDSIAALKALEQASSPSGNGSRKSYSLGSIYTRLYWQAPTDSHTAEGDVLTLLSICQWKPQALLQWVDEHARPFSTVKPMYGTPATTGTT
(§2) For human TREX1, the nucleotide sequence of the gene construct was codon optimized for expression in the bacterial host. The sequence was incorporated into the pMAL-c5e vector (NEB) downstream of a solubility-promoting MBP (maltose binding protein) fusion partner. The fusion protein product was expressed in E. coli strain BL21 (DE3) (Millipore) and purified in a series of chromatographic steps. Initial steps were conducted using a dextrin sepharose affinity column followed by a Q-sepharose ion exchange column (both GE Healthcare). After the second column the MBP partner was removed by incubation with enterokinase (NEB). Further purification was carried out with the second application of a Q-sepharose column followed by a Superdex 75 (GE Healthcare) size exclusion column. Finally, a heparin sepharose column (GE Healthcare) was applied to remove contaminating nucleotides. Similar methods were used in the preparation of the murine TREX1 enzyme and are described in Example B set forth below.
(§3) To evaluate the effect of compounds on TREX1 activity, test compounds were serially diluted (11-point, 3-fold) from 10 mM stock solutions and delivered to 384-well low-volume assay plates in 80 nL DMSO using an acoustic dispenser. Next, 4 μL of human TREX1 (0.5 nM), or murine TREX1 (1 nM), diluted in assay buffer (20 mM Tris pH 7.5, 5 mM MgCl2, 100 μg/mL BSA, 0.002% Triton X-100, 2 mM DTT), was added to the assay plate. After incubating for 30 minutes, 4 μL of labeled DNA oligonucleotide (500 nM) in assay buffer was added to initiate TREX1 exonuclease activity. The reaction was allowed to proceed for 45 minutes at room temperature prior to the addition of 4 μL of 150 mM EDTA to halt TREX1 activity. Assay plates were equilibrated for an additional 30 minutes and read on an EnVision Plate Reader (Perkin Elmer) to measure fluorescence emission at 535 nm following excitation at 485 nm. Fluorescence was plotted as a function of log molar compound concentration and fit to four-parameter dose-response equation to determine compound IC50.

For the next test, the target named is human TREX1 (Homo sapiens (Human), UniProt Q9NSU2). Nature of the test: TREX1 Exonuclease Assay (human enzyme). The conditions noted are these: human TREX1 0.5 nM, FAM/BHQ1-labeled DNA oligonucleotide. It is filed as biochemical. As for the experimental part: as §1, §2, §3
human TREX1, sequence (Q9NSU2 1-242): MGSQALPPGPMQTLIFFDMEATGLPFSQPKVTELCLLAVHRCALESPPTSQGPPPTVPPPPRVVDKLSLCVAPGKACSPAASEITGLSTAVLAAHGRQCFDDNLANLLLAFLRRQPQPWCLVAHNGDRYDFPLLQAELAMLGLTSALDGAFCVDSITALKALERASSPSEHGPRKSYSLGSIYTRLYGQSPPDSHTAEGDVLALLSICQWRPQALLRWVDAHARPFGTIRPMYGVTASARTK

By pIC50 is commonly meant the IC50 on a negative log10 scale, so that one unit is a factor of ten. A lower pIC50 goes with a high IC50. On to `N[C@@H]1C[C@H]2C(=O)N([C@H](CCC(=O)O)C(=O)NCc3ccc(C(F)(F)F)cc3)CCC(CCc3ccccc3)N2C1` (single isomer, unassigned) [Example 2A], for which the pIC50 against murine TREX1 and against human TREX1 was 4.00 to 5.00 each time.

With `C[C@H](C(=O)NCc1ccc(C(F)(F)F)cc1)N1CCC(CCc2ccccc2)N2C[C@H](N)C[C@H]2C1=O` (stereo partly drawn) [Example 5], the pIC50 at murine TREX1 and against human TREX1 was > 6.00 each time.

For `CC(C)C[C@H](C(=O)NCc1ccc(C(F)(F)F)cc1)N1CCC(CCc2ccccc2)N2C[C@H](N)C[C@H]2C1=O` (stereo partly drawn) [Example 6], the negative-log IC50 (pIC50) at murine TREX1 and at human TREX1 was > 6.00 throughout.

Regarding `CC(C)C[C@H](C(=O)N(C)Cc1ccc(C(F)(F)F)cc1)N1CCC(CCc2ccccc2)N2C[C@H](N)C[C@H]2C1=O` (stereo partly drawn) [Example 7], the pIC50 against murine TREX1 and against human TREX1 was 5.00 to 6.00 in each case.

For the compound `CC(C)C[C@H](C(=O)NCc1ccccc1)N1CCC(CCc2ccccc2)N2C[C@H](N)C[C@H]2C1=O` (stereo partly drawn) [Example 8], the pIC50 against murine TREX1 is 4.00 to 5.00; on human TREX1, 5.00 to 6.00.

As for `Cc1ccc(CNC(=O)[C@@H](CC(C)C)N2CCC(CCc3ccccc3)N3C[C@H](N)C[C@H]3C2=O)cc1` (stereo partly drawn) [Example 9], the pIC50 on murine TREX1 and on human TREX1 was 5.00 to 6.00 throughout.

For the compound `CC(C)C[C@H](C(=O)NCc1ccc(Cl)c(Cl)c1)N1CCC(Cc2ccccc2)N2C[C@H](N)C[C@H]2C1=O` (stereo partly drawn) [Example 10], the pIC50 against murine TREX1 and at human TREX1 was 5.00 to 6.00 each time.

With `CC(C)C[C@H](C(=O)NCc1ccc(Cl)c(Cl)c1)N1CCC(CCc2ccc(Cl)cc2)N2C[C@H](N)C[C@H]2C1=O` (stereo partly drawn) [Example 11], the pIC50 against murine TREX1 was 5.00 to 6.00; on human TREX1, > 6.00.

`CC(C)C[C@H](C(=O)NCC1CCCCC1)N1CCC(CCc2ccccc2)N2C[C@H](N)C[C@H]2C1=O` (stereo partly drawn) [Example 12]: the pIC50 against murine TREX1 and at human TREX1 was 4.00 to 5.00 throughout.

For `CC(C)C[C@H](C(=O)NCc1ccc(Cl)c(Cl)c1)N1CCC(C)N2C[C@H](N)C[C@H]2C1=O` (stereo partly drawn) [Example 13], the pIC50 against murine TREX1 and on human TREX1 was 4.00 to 5.00 each time.

For `N[C@@H]1C[C@H]2C(=O)N([C@H](CCC(=O)O)C(=O)NCc3ccc(Cl)c(Cl)c3)CCC(CCc3ccccc3)N2C1` (stereo partly drawn) [Example 14A], the pIC50 at murine TREX1 and against human TREX1 was 4.00 to 5.00 each time.

With `N[C@@H]1C[C@H]2C(=O)N([C@H](CCC(=O)O)C(=O)NCc3ccc(Cl)c(Cl)c3)CCC(COc3ccccc3)N2C1` (stereo partly drawn) [Example 17], the pIC50 against murine TREX1 and at human TREX1 was > 6.00 in each case.

In the case of `CC(C)C[C@H](C(=O)NCc1ccc(Cl)c(Cl)c1)N1CCC(CSc2ccccc2)N2C[C@H](N)C[C@H]2C1=O` (stereo partly drawn) [Example 18], the pIC50 against murine TREX1 and against human TREX1 was > 6.00 in each case.

Take `CC(C)C[C@H](C(=O)NCc1ccc(Cl)c(Cl)c1)N1CCC(COc2ccccc2)N2C[C@H](N)C[C@H]2C1=O` (stereo partly drawn) [Example 19]: the pIC50 was 5.00 to 6.00 at murine TREX1 and > 6.00 against human TREX1.

Regarding `CC(=O)N[C@@H]1C[C@H]2C(=O)N([C@H](CC(C)C)C(=O)NCc3ccc(Cl)c(Cl)c3)CCC(CCc3ccccc3)N2C1` (stereo partly drawn) [Example 20, (2R)-2-((8R,9aS)-8-acetamido-1-oxo-5-phenethylhexahydro-1H-pyrrolo[1,2-a][1,4]diazepin-2(3H)-yl)-N-(3,4-dichlorobenzyl)-4-methylpentanamide HCl], the pIC50 was 4.00 to 5.00 against murine TREX1 and 5.00 to 6.00 at human TREX1.

As to `CC(C)C[C@H](C(=O)NCc1ccc(Cl)c(Cl)c1)N1CCC(CCc2ccccc2)N2C[C@H](N(C)C)C[C@H]2C1=O` (stereo partly drawn) [Example 21, (2R)—N-(3,4-dichlorobenzyl)-2-((8R,9aS)-8-(dimethylamino)-1-oxo-5-phenethylhexahydro-1H-pyrrolo[1,2-a][1,4]diazepin-2(3H)-yl)-4-methylpentanamide HCl], the figures for the pIC50 against murine TREX1 and against human TREX1 were < 4.00 and 4.00 to 5.00, respectively.

Take `CC(C)C[C@H](C(=O)NCc1ccc(Cl)c(Cl)c1)N1CC(CCc2ccccc2)N2C[C@H](N)C[C@H]2C1=O` (stereo partly drawn) [Example 22, (2R)-2-((7R,8aS)-7-amino-1-oxo-4-phenethylhexahydropyrrolo[1,2-a]pyrazin-2(1H)-yl)-N-(3,4-dichlorobenzyl)-4-methylpentanamide.HCl]: the pIC50 against murine TREX1 and against human TREX1 was 4.00 to 5.00 each time.

As for `CC(C)C[C@H](C(=O)NCCc1ccccc1)N1CCC(CCc2ccccc2)N2C[C@H](N)C[C@H]2C1=O` (stereo partly drawn) [Example 23], the pIC50 against murine TREX1 is 4.00 to 5.00; on human TREX1, 5.00 to 6.00.

Take `CC(C)C[C@H](C(=O)N[C@H](C)c1ccccc1)N1CCC(CCc2ccccc2)N2C[C@H](N)C[C@H]2C1=O` (stereo partly drawn) [Example 24]: the pIC50 on murine TREX1 and against human TREX1 was 4.00 to 5.00 in each case.

On to `CC(C)C[C@H](C(=O)N[C@@H](C)c1ccccc1)N1CCC(CCc2ccccc2)N2C[C@H](N)C[C@H]2C1=O` (stereo partly drawn) [Example 25], for which the pIC50 on murine TREX1 and against human TREX1 was 4.00 to 5.00 each time.

Turning to `CC(C)C[C@H](C(=O)NCc1cccc(Cl)c1)N1CCC(CCc2ccccc2)N2C[C@H](N)C[C@H]2C1=O` (stereo partly drawn) [Example 26], the pIC50 on murine TREX1 was 5.00 to 6.00; against human TREX1, > 6.00.

For `CC(C)C[C@H](C(=O)NCc1ccccc1Cl)N1CCC(CCc2ccccc2)N2C[C@H](N)C[C@H]2C1=O` (stereo partly drawn) [Example 27], the results for the pIC50 against murine TREX1 and at human TREX1 were 4.00 to 5.00 and 5.00 to 6.00, respectively.

Take `CC(C)C[C@H](C(=O)NCc1cnccn1)N1CCC(CCc2ccccc2)N2C[C@H](N)C[C@H]2C1=O` (stereo partly drawn) [Example 28]: the pIC50 on murine TREX1 is 4.00 to 5.00; against human TREX1, 5.00 to 6.00.

`CC(C)C[C@H](C(=O)NCc1cscn1)N1CCC(CCc2ccccc2)N2C[C@H](N)C[C@H]2C1=O` (stereo partly drawn) [Example 30]: the pIC50 on murine TREX1 was 4.00 to 5.00; against human TREX1, 5.00 to 6.00.

As for `CC(C)C[C@H](C(=O)NCc1ccc(Cl)cc1Cl)N1CCC(CCc2ccccc2)N2C[C@H](N)C[C@H]2C1=O` (stereo partly drawn) [Example 31], the results for the pIC50 on murine TREX1 and against human TREX1 were 5.00 to 6.00 and > 6.00, respectively.

As for `CC(C)C[C@H](C(=O)NCc1ccc(C#N)cc1)N1CCC(CCc2ccccc2)N2C[C@H](N)C[C@H]2C1=O` (stereo partly drawn) [Example 32], the pIC50 is 4.00 to 5.00 against murine TREX1 and 5.00 to 6.00 at human TREX1.

As to `CC(C)C[C@H](C(=O)NCc1cc(Cl)cc(Cl)c1)N1CCC(CCc2ccccc2)N2C[C@H](N)C[C@H]2C1=O` (stereo partly drawn) [Example 33], the values for the pIC50 on murine TREX1 and against human TREX1 were 5.00 to 6.00 and > 6.00, respectively.

With `CC(C)C[C@H](C(=O)NCc1ccc(F)cc1)N1CCC(CCc2ccccc2)N2C[C@H](N)C[C@H]2C1=O` (stereo partly drawn) [Example 34], the pIC50 is 5.00 to 6.00 against murine TREX1 and > 6.00 against human TREX1.

As for `CC(C)C[C@H](C(=O)NS(=O)(=O)c1ccccc1)N1CCC(CCc2ccccc2)N2C[C@H](N)C[C@H]2C1=O` (stereo partly drawn) [Example 35], the pIC50 against murine TREX1 and against human TREX1 was 5.00 to 6.00 each time.

On to `CC(C)C[C@H](C(=O)NCCc1ccc(Cl)c(Cl)c1)N1CCC(CCc2ccccc2)N2C[C@H](N)C[C@H]2C1=O` (stereo partly drawn) [Example 37], for which the pIC50 against murine TREX1 is 5.00 to 6.00; at human TREX1 it was > 6.00.

With `N[C@@H]1C[C@H]2C(=O)N([C@H](CCc3nsc(=O)[nH]3)C(=O)NCc3ccc(Cl)c(Cl)c3)CCC(CCc3ccccc3)N2C1` (stereo partly drawn) [Example 38], the pIC50 against murine TREX1 and on human TREX1 was > 6.00 in each case.

Consider `CC(C)C[C@H](C(=O)NS(=O)(=O)c1ccc(Cl)c(Cl)c1)N1CCC(CCc2ccccc2)N2C[C@H](N)C[C@H]2C1=O` (stereo partly drawn) [Example 39], for which the pIC50 at murine TREX1 and on human TREX1 was > 6.00 throughout.

As to `CCC[C@H](CNS(=O)(=O)c1ccc(Cl)c(Cl)c1)N1CCC(CCc2ccccc2)N2C[C@H](N)C[C@H]2C1=O` (stereo partly drawn) [Example 40], the values for the pIC50 against murine TREX1 and at human TREX1 were 5.00 to 6.00 and > 6.00, respectively.

`CC(C)C[C@H](C(=O)NCc1ccc(Cl)c(Cl)c1)N1CCC(CS(=O)(=O)c2ccccc2)N2C[C@H](N)C[C@H]2C1=O` (stereo partly drawn) [Example 41]: the pIC50 was 4.00 to 5.00 against murine TREX1 and 5.00 to 6.00 at human TREX1.

Regarding `N#CCC[C@H](C(=O)NCc1ccc(Cl)c(Cl)c1)N1CCC(CCc2ccccc2)N2C[C@H](N)C[C@H]2C1=O` (stereo partly drawn) [Example 45], the pIC50 on murine TREX1 and on human TREX1 was > 6.00 throughout.

On to `CC(C)C[C@H](C(=O)NCc1ccc(Cl)cc1)N1CCC(CCc2ccccc2)N2C[C@H](N)C[C@H]2C1=O` (stereo partly drawn) [Example 46], for which the negative logarithm of the IC50 (pIC50) at murine TREX1 was 5.00 to 6.00; against human TREX1, > 6.00.
